Key:
Type in all cases: in vivo
Spodoptera littoralis = Spodoptera littoralis (Egyptian cotton leaf worm) cotton leaf disc spray test; settings: foliar, 72 h, application rate 200 ppm, L1 larvae, 3 days after infestation, vs untreated, read-out: control (at least one of mortality, anti-feedant effect, growth inhibition)
Method: Spodoptera littoralis (Egyptian Cotton Leaf Worm)
Cotton leaf discs were placed on agar in 24-well microtiter plates and sprayed with aqueous test solutions prepared from 10′000 ppm DMSO stock solutions. After drying the leaf discs were infested with five L1 larvae. The samples were assessed for mortality, anti-feedant effect, and growth inhibition in comparison to untreated samples 3 days after infestation. Control of Spodoptera littoralis by a test sample is when at least one of mortality, anti-feedant effect, and growth inhibition is higher than the untreated sample.

Plutella xylostella = Plutella xylostella (diamond back moth) artificial diet test; settings: 120 h, application rate 200 ppm, L2 larvae, 5 days after infestation, vs untreated, read-out: effect in at least one of the two categories (mortality or growth inhibition)
Method: Plutella xylostella (Diamond Back Moth):
24-well microtiter plates with artificial diet were treated with aqueous test solutions prepared from 10′000 ppm DMSO stock solutions by pipetting. After drying, the plates were infested with L2 larvae (10 to 15 per well). The samples were assessed for mortality and growth inhibition in comparison to untreated samples 5 days after infestation. The following compounds gave an effect of at least 80% in at least one of the two categories (mortality or growth inhibition) at an application rate of 200 ppm: 1, 2, 3, 4, 7, 8, 9, 10, 11, 12, 13, 14, 15, 16, 17, 18, 19, 20, 21, 22, 23, 24, 26, 27, 28 and 29.

Diabrotica balteata = Diabrotica balteata (corn root worm) maize sprout spray test; settings: 96 h, application rate 200 ppm, L2 larvae, 4 days after infestation, vs untreated, read-out: effect in at least one of the two categories (mortality or growth inhibition)
Method: Diabrotica balteata, (Corn Root Worm)
Maize sprouts, placed on an agar layer in 24-well microtiter plates were treated with aqueous test solutions prepared from 10′000 ppm DMSO stock solutions by spraying. After drying, the plates were infested with L2 larvae (6 to 10 per well). The samples were assessed for mortality and growth inhibition in comparison to untreated samples 4 days after infestation. The following compounds gave an effect of at least 80% in at least one of the two categories (mortality or growth inhibition) at an application rate of 200 ppm: 1, 2, 3, 4, 7, 8, 9, 11, 12, 13, 14, 15, 16, 17, 18, 19, 20, 21, 27, 28 and 29.

Thrips tabaci = Thrips tabaci (onion thrips) sunflower leaf disc spray test; settings: foliar, 144 h, application rate 200 ppm, population of mixed ages, 6 days after infestation
Method: Thrips tabaci (Onion Thrips):
Sunflower leaf discs were placed on agar in 24-well microtiter plates and sprayed with aqueous test solutions prepared from 10′000 ppm DMSO stock solutions. After drying the leaf discs were infested with a Thrips population of mixed ages. The samples were assessed for mortality 6 days after infestation.

Tetranychus urticae = Tetranychus urticae (two-spotted spider mite) bean leaf disc spray test; settings: foliar, 192 h, application rate 200 ppm, 8 days after infestation, read-out: mortality on mixed population (mobile stages)
Method: Tetranychus urticae (Two-Spotted Spider Mite):
Bean leaf discs on agar in 24-well microtiter plates were sprayed with aqueous test solutions prepared from 10′000 ppm DMSO stock solutions. After drying the leaf discs were infested with a mite population of mixed ages. The samples were assessed for mortality on mixed population (mobile stages) 8 days after infestation.

Euschistus heros = Euschistus heros (neotropical brown stink bug) soybean leaf spray test; settings: 120 h, application rate 200 ppm, N2 nymphs, 5 days after infestation, vs untreated, read-out: effect in at least one of the two categories (mortality or growth inhibition)
Method: Euschistus heros (Neotropical Brown Stink Bug)
Soybean leaves on agar in 24-well microtiter plates were sprayed with aqueous test solutions prepared from 10′000 ppm DMSO stock solutions. After drying the leaves were infested with N2 nymphs. The samples were assessed for mortality and growth inhibition in comparison to untreated samples 5 days after infestation. The following compounds gave an effect of at least 80% in at least one of the two categories (mortality or growth inhibition) at an application rate of 200 ppm: 1, 2, 3, 7, 8, 9, 12, 13, 14, 15, 17, 18, 21, 25, 26, 27, 28 and 29.

Cn1nc(C(F)(F)C(F)(F)F)c(C(F)(F)F)c1-n1cc(-c2cc(C(=O)NC3(C#N)CC3)c(C#N)s2)nn1 [Compound 4, 2-cyano-N-(1-cyanocyclopropyl)-5-[1-[2-methyl-5-(1,1,2,2,2-pentafluoroethyl)-4-(trifluoromethyl)pyrazol-3-yl]triazol-4-yl]thiophene-3-carboxamide]
≥ 80%: percent control (mortality, anti-feedant effect or growth inhibition) at 200 ppm (Spodoptera littoralis) | percent effect (mortality or growth inhibition) at 200 ppm (Plutella xylostella) | percent effect (mortality or growth inhibition) at 200 ppm (Diabrotica balteata) | mortality at 200 ppm (Thrips tabaci) | mortality at 200 ppm (Tetranychus urticae)

Cn1nc(C(F)(F)C(F)(F)F)c(C(F)(F)F)c1-c1cc(-c2cc(C(=O)NC3(C#N)CC3)c(C#N)s2)on1 [Compound 16, 2-cyano-N-(1-cyanocyclopropyl)-5-[3-[2-methyl-5-(1,1,2,2,2-pentafluoroethyl)-4-(trifluoromethyl)pyrazol-3-yl]isoxazol-5-yl]thiophene-3-carboxamide]
≥ 80%: percent control (mortality, anti-feedant effect or growth inhibition) at 200 ppm (Spodoptera littoralis) | percent effect (mortality or growth inhibition) at 200 ppm (Plutella xylostella) | percent effect (mortality or growth inhibition) at 200 ppm (Diabrotica balteata) | mortality at 200 ppm (Thrips tabaci) | mortality at 200 ppm (Tetranychus urticae)

CN(C(=O)c1cc(-c2cc(-c3c(C(F)(F)F)c(C(F)(F)C(F)(F)F)nn3C)no2)sc1Cl)C1(C#N)CC1 [Compound 23, 2-chloro-N-(1-cyanocyclopropyl)-N-methyl-5-[3-[2-methyl-5-(1,1,2,2,2-pentafluoroethyl)-4-(trifluoromethyl)pyrazol-3-yl]isoxazol-5-yl]thiophene-3-carboxamide]
≥ 80%: percent control (mortality, anti-feedant effect or growth inhibition) at 200 ppm (Spodoptera littoralis) | percent effect (mortality or growth inhibition) at 200 ppm (Plutella xylostella) | mortality at 200 ppm (Thrips tabaci)

CN(C(=O)c1cc(-c2cc(-c3c(C(F)(F)F)c(C(F)(F)C(F)(F)F)nn3C)no2)sc1Cl)C1CC1 [Compound 20, 2-chloro-N-cyclopropyl-N-methyl-5-[3-[2-methyl-5-(1,1,2,2,2-pentafluoroethyl)-4-(trifluoromethyl)pyrazol-3-yl]isoxazol-5-yl]thiophene-3-carboxamide]
≥ 80%: percent control (mortality, anti-feedant effect or growth inhibition) at 200 ppm (Spodoptera littoralis) | percent effect (mortality or growth inhibition) at 200 ppm (Plutella xylostella) | percent effect (mortality or growth inhibition) at 200 ppm (Diabrotica balteata) | mortality at 200 ppm (Thrips tabaci)

CCN(C(=O)c1cc(-c2cn(-c3c(C(F)(F)F)c(C(F)(F)C(F)(F)F)nn3C)nn2)sc1Cl)C1(C#N)CC1 [Compound 12, 2-chloro-N-(1-cyanocyclopropyl)-N-ethyl-5-[1-[2-methyl-5-(1,1,2,2,2-pentafluoroethyl)-4-(trifluoromethyl)pyrazol-3-yl]triazol-4-yl]thiophene-3-carboxamide]
≥ 80%: percent control (mortality, anti-feedant effect or growth inhibition) at 200 ppm (Spodoptera littoralis) | percent effect (mortality or growth inhibition) at 200 ppm (Plutella xylostella) | percent effect (mortality or growth inhibition) at 200 ppm (Diabrotica balteata) | mortality at 200 ppm (Thrips tabaci) | percent effect (mortality or growth inhibition) at 200 ppm (Euschistus heros)

Cn1nc(C(F)(F)C(F)(F)F)c(C(F)(F)F)c1-c1cc(-c2cc(C(=O)NC3(C#N)CC3)c(Cl)s2)on1 [Compound 22, 2-chloro-N-(1-cyanocyclopropyl)-5-[3-[2-methyl-5-(1,1,2,2,2-pentafluoroethyl)-4-(trifluoromethyl)pyrazol-3-yl]isoxazol-5-yl]thiophene-3-carboxamide]
≥ 80%: percent effect (mortality or growth inhibition) at 200 ppm (Plutella xylostella)

CN(C(=O)c1cc(-c2cn(-c3c(C(F)(F)F)c(C(F)(F)C(F)(F)F)nn3C)nn2)sc1Cl)C1(C#N)CC1 [Compound 11, 2-chloro-N-(1-cyanocyclopropyl)-N-methyl-5-[1-[2-methyl-5-(1,1,2,2,2-pentafluoroethyl)-4-(trifluoromethyl)pyrazol-3-yl]triazol-4-yl]thiophene-3-carboxamide]
≥ 80%: percent control (mortality, anti-feedant effect or growth inhibition) at 200 ppm (Spodoptera littoralis) | percent effect (mortality or growth inhibition) at 200 ppm (Plutella xylostella) | percent effect (mortality or growth inhibition) at 200 ppm (Diabrotica balteata) | mortality at 200 ppm (Thrips tabaci)

CCN(C(=O)c1cc(-c2cc(-c3c(C(F)(F)F)c(C(F)(F)C(F)(F)F)nn3C)no2)sc1Cl)C1CC1 [Compound 21, 2-chloro-N-cyclopropyl-N-ethyl-5-[3-[2-methyl-5-(1,1,2,2,2-pentafluoroethyl)-4-(trifluoromethyl)pyrazol-3-yl]isoxazol-5-yl]thiophene-3-carboxamide]
≥ 80%: percent control (mortality, anti-feedant effect or growth inhibition) at 200 ppm (Spodoptera littoralis) | percent effect (mortality or growth inhibition) at 200 ppm (Plutella xylostella) | percent effect (mortality or growth inhibition) at 200 ppm (Diabrotica balteata) | percent effect (mortality or growth inhibition) at 200 ppm (Euschistus heros)

Cn1nc(C(F)(F)C(F)(F)F)c(C(F)(F)F)c1-c1cc(-c2cc(C(=O)NC3CC3)c(Cl)s2)on1 [Compound 19, 2-chloro-N-cyclopropyl-5-[3-[2-methyl-5-(1,1,2,2,2-pentafluoroethyl)-4-(trifluoromethyl)pyrazol-3-yl]isoxazol-5-yl]thiophene-3-carboxamide]
≥ 80%: percent control (mortality, anti-feedant effect or growth inhibition) at 200 ppm (Spodoptera littoralis) | percent effect (mortality or growth inhibition) at 200 ppm (Plutella xylostella) | percent effect (mortality or growth inhibition) at 200 ppm (Diabrotica balteata)

Cn1nc(C(F)(F)C(F)(F)F)c(C(F)(F)F)c1-c1cc(-c2cc(C(=O)NC3CC3)c(C#N)s2)cs1 [Compound 25, 2-cyano-N-cyclopropyl-5-[5-[2-methyl-5-(1,1,2,2,2-pentafluoroethyl)-4-(trifluoromethyl)pyrazol-3-yl]-3-thienyl]thiophene-3-carboxamide]
≥ 80%: mortality at 200 ppm (Tetranychus urticae) | percent effect (mortality or growth inhibition) at 200 ppm (Euschistus heros)

CCN(C(=O)c1cc(-c2cc(-c3c(C(F)(F)F)c(C(F)(F)C(F)(F)F)nn3C)no2)sc1C#N)C1(C#N)CC1 [Compound 18, 2-cyano-N-(1-cyanocyclopropyl)-N-ethyl-5-[3-[2-methyl-5-(1,1,2,2,2-pentafluoroethyl)-4-(trifluoromethyl)pyrazol-3-yl]isoxazol-5-yl]thiophene-3-carboxamide]
≥ 80%: percent control (mortality, anti-feedant effect or growth inhibition) at 200 ppm (Spodoptera littoralis) | percent effect (mortality or growth inhibition) at 200 ppm (Plutella xylostella) | percent effect (mortality or growth inhibition) at 200 ppm (Diabrotica balteata) | mortality at 200 ppm (Thrips tabaci) | percent effect (mortality or growth inhibition) at 200 ppm (Euschistus heros)

CCN(C(=O)c1cc(-c2cc(-c3c(C(F)(F)F)c(C(F)(F)C(F)(F)F)nn3C)no2)sc1Cl)C1(C#N)CC1 [Compound 24]
≥ 80%: percent control (mortality, anti-feedant effect or growth inhibition) at 200 ppm (Spodoptera littoralis) | percent effect (mortality or growth inhibition) at 200 ppm (Plutella xylostella) | mortality at 200 ppm (Thrips tabaci)

Cn1nc(C(F)(F)C(F)(F)F)c(C(F)(F)F)c1-n1cc(-c2cc(C(=O)NC3(C#N)CC3)c(Cl)s2)nn1 [Compound 10, 2-chloro-N-(1-cyanocyclopropyl)-5-[1-[2-methyl-5-(1,1,2,2,2-pentafluoroethyl)-4-(trifluoromethyl)pyrazol-3-yl]triazol-4-yl]thiophene-3-carboxamide]
≥ 80%: percent control (mortality, anti-feedant effect or growth inhibition) at 200 ppm (Spodoptera littoralis) | percent effect (mortality or growth inhibition) at 200 ppm (Plutella xylostella) | mortality at 200 ppm (Thrips tabaci)

Source: patent US11040962B2, “Pesticidally active pyrazole derivatives” (SYNGENTA PARTICIPATIONS AG, priority 2017, dated 2021)
